Reference: patent publication US11690854B2, “Methods of treating heavy menstrual bleeding” (priority 2018, dated 2023)
Marks after values point to notes of the source that are not given here.

Legend:
[1] = test system: women with endometriosis; assay: Six Phase 2 studies of elagolix for endometriosis associated pain; type: in vivo, human
Method: Efficacy was assessed for dysmenorrhea (DYS), nonmenstrual pelvic pain (NMPP), dyspareunia, and general pelvic pain with a range of instruments. Additional efficacy assessments included quality of life and the use of analgesics for control of endometriosis pain. Across these Phase 2 studies, the enrollment criteria were similar and were intended to select premenopausal women aged 18 to 49 years of age with endometriosis confirmed by visual inspection (laparoscopy or laparotomy within 5 to 8 years of screening) who experienced moderate to severe endometriosis-associated pain. Women were included if they had regular menstrual cycles and no significant uterine fibroids or pelvic lesions. Total daily doses of elagolix ranging from 75 to 250 mg were evaluated across a range of pain instruments measuring […], or general pelvic pain (including patient global impression of change), during 12 or 24 weeks of treatment. […] Overall, 475 women have received elagolix for at least 12 weeks and 278 women for a period of at least 24 weeks. The majority of women were Caucasian (78.9% to 100%), while approximately 7% were black and approximately 4.5% were Hispanic. The mean age across these six Phase 2 studies was 31 to 33 years (range 18 to 48 years) and mean body mass index (BMI) of 23 to 28 kg/m. […] In addition, the majority were receiving analgesic medications (nonsteroidal anti-inflammatory drugs, opioids, and/or other) prior to study enrollment

[2] = test system: premenopausal women with uterine fibroids; assay: Phase 2a trial of Elagolix with or without add-back in uterine fibroids with heavy menstrual bleeding; type: in vivo, human; settings: for Percent of subjects achieving composite bleeding endpoint (MBL <80 mL at Final Month and ≥50% reduction in MBL from baseline, AH method): last 28 days of treatment, placebo 30%; for Percent of subjects with ≥25% reduction in uterine volume: placebo 9%; for Percent of subjects with ≥25% reduction in fibroid volume: placebo 29%; for Average Total Blood Loss Measured by AH Method During Treatment: 3 months of treatment, placebo 569.7; for Average Total MBL in Days 66-95 Post-Baseline: placebo 190.3; for Average total MBL from days 6-35 post-baseline: placebo 190.5; for Average Total MBL from Days 36-65 Post-Baseline: placebo 194.6
Method: Methods for analyzing menstrual blood loss are known in the art and include, for example, the alkaline hematin method. The alkaline hematin method is based on the quantitation of menstrual blood collected on sanitary products (Hallberg L., Nilsoon L., Determination of Menstrual Blood Loss. Scand. J. Clin. Lab. Invest., 1964; 16:244-248). The method uses a strong alkaline solution to chemically convert the heme from bloodstained sanitary products to alkaline hematin, which is measured colorimetrically. When compared to a subject's serum hemoglobin (Hgb), the volume of blood loss in the menstrual products can be determined. […] The study involved the following six (6) cohorts: Cohort 1: […] Cohort 2: Elagolix 300 mg BID or placebo. Cohort 3: […] Cohort 4: […] Cohort 6: […] There are a number of efficacy endpoints, but a composite endpoint consisting of two bleeding assessments was used to assess one measure of efficacy. […] Eighty-five percent (85%), 97%, and 30% of subjects achieved the composite bleeding assessment endpoint in the 200 mg BID, 300 mg BID, and placebo groups, respectively (P<0.05 for 200 mg BID versus placebo in cohort 1, and 300 mg BID versus placebo in cohort 2). […] Quality of life (QoL) measures were also determined using the “Responsiveness of the uterine fibroid symptom and health-related quality of life questionnaire” (UFS-QOL) (Harding, Gale, Coyne Karin S., Thompson Christine L., Spies James B, United BioSource Corporation, 7101 Wisconsin Avenue, Suite 600, Bethesda, Md., 20814, USA, Health and Quality Life Outcomes, 2008, 6, page 99).

[3] = test system: healthy women; assay: 3-menstrual cycle study in healthy women; type: in vivo, human
[4] = test system: rats; assay: 2-year carcinogenicity study in rats; type: in vivo; settings: rat
Description: The rat tumors were identified as being species-specific and of negligible relevance to humans. This conclusion is based on a follow-on thyroid and hepatic effects-related investigative study performed to document the possibility that thyroid and liver tumors may be specific to rat and occurred via induction of hepatic drug metabolizing enzymes at the high dose.

[5] = Mutagenicity studies using in vitro and in vivo test systems
Description: Mutagenicity studies have been performed with elagolix using in vitro and in vivo test systems.

[6] = test system: premenopausal women with endometriosis with associated pain; assay: Phase 3 Study EM-I (and extension EM-III); type: in vivo, human; settings: for Proportion of responders for Dyspareunia (Daily Endometriosis Pain Impact Scale) / Proportion of responders for dysmenorrhea (Daily Endometriosis Pain Impact Scale) / Proportion of responders for Non-Menstrual Pelvic Pain (Daily Endometriosis Pain Impact Scale): EM-I
Description: Each placebo-controlled study assessed the reduction in endometriosis-associated pain over 6 months of treatment. More than 75 percent of women who completed Study EM-I and EM-II enrolled in the extension studies for an additional 6 month treatment period. Subjects were followed for up to 12 months post-treatment. The co-primary efficacy endpoints were the proportion of responders for dysmenorrhea and pelvic pain not related to menses (also known as non-menstrual pelvic pain [NMPP]) at Month 3 compared to placebo. The primary analysis independently evaluated these endpoints using a daily diary that asked patients to assess their pain and its impact on their daily activities, over the previous 24 hours. […] Women were defined as responders if they experienced clinically meaningful reduction in dysmenorrhea and/or NMPP with no increased analgesic use for endometriosis associated pain. Dyspareunia was evaluated as a secondary endpoint using the Daily Endometriosis Pain Impact Scale. Endometrial biopsies were performed in subjects in Study EM-I and its extension at Month 6 and Month 12.

[7] = 100 BID, screening 276.4 mL per cycle
[8] = 200 BID, screening 287.4 mL per cycle
[9] = 300 BID, screening 224.8 mL per cycle
[10] = 400 QD, screening 220.3 mL per cycle
[11] = 600 QD, screening 228.7 mL per cycle

## COc1cccc(-c2c(C)n(Cc3c(F)cccc3C(F)(F)F)c(=O)n(C[C@H](NCCCC(=O)O)c3ccccc3)c2=O)c1F [Elagolix, 4-((R)-2-[5-(2-fluoro-3-methoxy-phenyl)-3-(2-fluoro-6-trifluoromethyl-benzyl)-4-methyl-2,6-dioxo-3,6-dihydro-2H-pyrimidin-1-yl]-1-phenyl-ethylamino)-butyric acid]
[1]; all daily doses (100 to 250 mg)
  Safety and tolerability: safe and well tolerated
[1]; completed Phase 2 studies
  Incidence of AEs that led to discontinuations: 4.8%
[1]; daily dose of 150 mg
  Effect on DYS and NMPP versus DMPA-SC: comparable effect to subcutaneous depot medroxyprogesterone acetate (DMPA-SC)
[1]; daily doses of 150 mg and 250 mg
  Effect versus leuprorelin: less effect compared with leuprorelin
[1]; daily doses of 100 to 250 mg, 12 or 24 weeks
  Reduction in endometriosis-associated pain: clinically meaningful reductions in endometriosis-associated pain
[1]; versus placebo
  Days of bleeding per month (eDiary): fewer days of bleeding per month compared with patients who received placebo
[2]; 200 mg BID
  Percent of subjects achieving composite bleeding endpoint (MBL <80 mL at Final Month and ≥50% reduction in MBL from baseline, AH method): 85%
  Percent of subjects with ≥25% reduction in uterine volume: 50%
  Percent of subjects with ≥25% reduction in fibroid volume: 63%
[2]; 300 mg BID without add-back therapy
  Inhibition of bleeding: maximum inhibition of bleeding (most of women achieved amenorrhea)
[2]; 300 mg BID, 400 mg QD and 600 mg QD without add-back
  Women who reported an adverse event of hot flash: 50-62.5%
[2]; 300 mg BID, compared with other Elagolix treatments
  Effect on uterine and fibroid volumes (FIG. 4): showed the strongest effects
[2]; 300 mg BID
  Percent of subjects achieving composite bleeding endpoint (MBL <80 mL at Final Month and ≥50% reduction in MBL from baseline, AH method): 97%
  Percent of subjects with ≥25% reduction in uterine volume: 68%
  Percent of subjects with ≥25% reduction in fibroid volume: 55%
[2]; 400 mg QD and 600 mg QD
  Inhibition of bleeding compared with 300 mg BID: slightly less effective
[2]; 100 BID, N = 26
  Average Total Blood Loss Measured by AH Method During Treatment: 198.4 mL
[2]; [7]
  Average Total MBL in Days 66-95 Post-Baseline: 65.4 mL
  Average total MBL from days 6-35 post-baseline: 33.2 mL
  Average Total MBL from Days 36-65 Post-Baseline: 100.9 mL
[2]; 200 BID, N = 28
  Average Total Blood Loss Measured by AH Method During Treatment: 47.0 mL
[2]; [8]
  Average Total MBL in Days 66-95 Post-Baseline: 41.5 mL
  Average total MBL from days 6-35 post-baseline: 0 mL
  Average Total MBL from Days 36-65 Post-Baseline: 5.5 mL
[2]; 300 BID, N = 26
  Average Total Blood Loss Measured by AH Method During Treatment: 4.3 mL
[2]; [9]
  Average Total MBL in Days 66-95 Post-Baseline: 4.3 mL
  Average total MBL from days 6-35 post-baseline: 0 mL
  Average Total MBL from Days 36-65 Post-Baseline: 0 mL
[2]; 400 QD, N = 26
  Average Total Blood Loss Measured by AH Method During Treatment: 38.4 mL
[2]; [10]
  Average Total MBL in Days 66-95 Post-Baseline: 21.6 mL
  Average total MBL from days 6-35 post-baseline: 14.9 mL
  Average Total MBL from Days 36-65 Post-Baseline: 12.4 mL
[2]; 600 QD, N = 24
  Average Total Blood Loss Measured by AH Method During Treatment: 69.6 mL
[2]; [11]
  Average Total MBL in Days 66-95 Post-Baseline: 14.9 mL
  Average total MBL from days 6-35 post-baseline: 27.6 mL
  Average Total MBL from Days 36-65 Post-Baseline: 35.0 mL
[3]; 150 mg QD
  Ovulation rate: approximately 50%
[3]; 150 mg QD and 200 mg BID, compared to pretreatment values
  Mean endometrial thickness (transvaginal ultrasound): dose dependent decrease in the mean endometrial thickness
[3]; 200 mg BID
  Ovulation rate: ~32%
[4]; both, in vivo, 2 years
  Margin of safety at the high dose with respect to 200 mg BID in women: 13 fold
[4]; high dose, identified as species-specific
  Tumors in 2-year carcinogenicity study: increase in thyroid (male and female) and liver (males only) tumors
[5]
  Mutagenic or clastogenic potential: no evidence of a mutagenic or clastogenic potential
[6]; 150 mg QD, Month 3, n/N 74/187, placebo 31.9
  Proportion of responders for Dyspareunia (Daily Endometriosis Pain Impact Scale): 39.6%
[6]; 150 mg QD, Month 3, n/N 115/248, placebo 19.6
  Proportion of responders for dysmenorrhea (Daily Endometriosis Pain Impact Scale): 46.4*** %
[6]; 150 mg QD, Month 3, n/N 125/248, placebo 36.5
  Proportion of responders for Non-Menstrual Pelvic Pain (Daily Endometriosis Pain Impact Scale): 50.4*** %
[6]; 150 mg QD, Month 6, n/N 74/187, placebo 33.3
  Proportion of responders for Dyspareunia (Daily Endometriosis Pain Impact Scale): 39.6%
[6]; 150 mg QD, Month 6, n/N 104/247, placebo 23.1
  Proportion of responders for dysmenorrhea (Daily Endometriosis Pain Impact Scale): 42.1*** %
[6]; 150 mg QD, Month 6, n/N 113/247, placebo 34.9
  Proportion of responders for Non-Menstrual Pelvic Pain (Daily Endometriosis Pain Impact Scale): 45.7** %
[6]; 200 mg BID, Month 3, n/N 81/172, placebo 31.9
  Proportion of responders for Dyspareunia (Daily Endometriosis Pain Impact Scale): 47.1*** %
[6]; 200 mg BID, Month 3, n/N 133/244, placebo 36.5
  Proportion of responders for Non-Menstrual Pelvic Pain (Daily Endometriosis Pain Impact Scale): 54.5*** %
[6]; 200 mg BID, Month 3, n/N 185/244, placebo 19.6
  Proportion of responders for dysmenorrhea (Daily Endometriosis Pain Impact Scale): 75.8*** %
[6]; 200 mg BID, Month 6, n/N 81/161, placebo 33.3
  Proportion of responders for Dyspareunia (Daily Endometriosis Pain Impact Scale): 50.3*** %
[6]; 200 mg BID, Month 6, n/N 151/243, placebo 34.9
  Proportion of responders for Non-Menstrual Pelvic Pain (Daily Endometriosis Pain Impact Scale): 62.1*** %
[6]; 200 mg BID, Month 6, n/N 183/243, placebo 23.1
  Proportion of responders for dysmenorrhea (Daily Endometriosis Pain Impact Scale): 75.3*** %
[6]; Study EM-I and its extension, Month 6 and Month 12
  Endometrial biopsy findings: no abnormal biopsy findings post-baseline
